Data: ChEMBL document CHEMBL4414670 (J Nat Prod, 2019)
pIC50: −log10 of the molar value. Calls of active or inactive are those of the source. The rule behind the calls is not given here.

Experiments:
[1] = biological target: Receptor-type tyrosine-protein phosphatase F (Homo sapiens) (UniProt P10586); assay: Inhibition of LAR (unknown origin) assessed as time required for half of the protein to be covalently modified using DiFMUP as substrate incubated for 15 to 120 mins followed by substrate addition at pH 6.5 by standard phosphatase assay based fluorescence analysis
Sequence of Receptor-type tyrosine-protein phosphatase F (Homo sapiens) (P10586 whole entry): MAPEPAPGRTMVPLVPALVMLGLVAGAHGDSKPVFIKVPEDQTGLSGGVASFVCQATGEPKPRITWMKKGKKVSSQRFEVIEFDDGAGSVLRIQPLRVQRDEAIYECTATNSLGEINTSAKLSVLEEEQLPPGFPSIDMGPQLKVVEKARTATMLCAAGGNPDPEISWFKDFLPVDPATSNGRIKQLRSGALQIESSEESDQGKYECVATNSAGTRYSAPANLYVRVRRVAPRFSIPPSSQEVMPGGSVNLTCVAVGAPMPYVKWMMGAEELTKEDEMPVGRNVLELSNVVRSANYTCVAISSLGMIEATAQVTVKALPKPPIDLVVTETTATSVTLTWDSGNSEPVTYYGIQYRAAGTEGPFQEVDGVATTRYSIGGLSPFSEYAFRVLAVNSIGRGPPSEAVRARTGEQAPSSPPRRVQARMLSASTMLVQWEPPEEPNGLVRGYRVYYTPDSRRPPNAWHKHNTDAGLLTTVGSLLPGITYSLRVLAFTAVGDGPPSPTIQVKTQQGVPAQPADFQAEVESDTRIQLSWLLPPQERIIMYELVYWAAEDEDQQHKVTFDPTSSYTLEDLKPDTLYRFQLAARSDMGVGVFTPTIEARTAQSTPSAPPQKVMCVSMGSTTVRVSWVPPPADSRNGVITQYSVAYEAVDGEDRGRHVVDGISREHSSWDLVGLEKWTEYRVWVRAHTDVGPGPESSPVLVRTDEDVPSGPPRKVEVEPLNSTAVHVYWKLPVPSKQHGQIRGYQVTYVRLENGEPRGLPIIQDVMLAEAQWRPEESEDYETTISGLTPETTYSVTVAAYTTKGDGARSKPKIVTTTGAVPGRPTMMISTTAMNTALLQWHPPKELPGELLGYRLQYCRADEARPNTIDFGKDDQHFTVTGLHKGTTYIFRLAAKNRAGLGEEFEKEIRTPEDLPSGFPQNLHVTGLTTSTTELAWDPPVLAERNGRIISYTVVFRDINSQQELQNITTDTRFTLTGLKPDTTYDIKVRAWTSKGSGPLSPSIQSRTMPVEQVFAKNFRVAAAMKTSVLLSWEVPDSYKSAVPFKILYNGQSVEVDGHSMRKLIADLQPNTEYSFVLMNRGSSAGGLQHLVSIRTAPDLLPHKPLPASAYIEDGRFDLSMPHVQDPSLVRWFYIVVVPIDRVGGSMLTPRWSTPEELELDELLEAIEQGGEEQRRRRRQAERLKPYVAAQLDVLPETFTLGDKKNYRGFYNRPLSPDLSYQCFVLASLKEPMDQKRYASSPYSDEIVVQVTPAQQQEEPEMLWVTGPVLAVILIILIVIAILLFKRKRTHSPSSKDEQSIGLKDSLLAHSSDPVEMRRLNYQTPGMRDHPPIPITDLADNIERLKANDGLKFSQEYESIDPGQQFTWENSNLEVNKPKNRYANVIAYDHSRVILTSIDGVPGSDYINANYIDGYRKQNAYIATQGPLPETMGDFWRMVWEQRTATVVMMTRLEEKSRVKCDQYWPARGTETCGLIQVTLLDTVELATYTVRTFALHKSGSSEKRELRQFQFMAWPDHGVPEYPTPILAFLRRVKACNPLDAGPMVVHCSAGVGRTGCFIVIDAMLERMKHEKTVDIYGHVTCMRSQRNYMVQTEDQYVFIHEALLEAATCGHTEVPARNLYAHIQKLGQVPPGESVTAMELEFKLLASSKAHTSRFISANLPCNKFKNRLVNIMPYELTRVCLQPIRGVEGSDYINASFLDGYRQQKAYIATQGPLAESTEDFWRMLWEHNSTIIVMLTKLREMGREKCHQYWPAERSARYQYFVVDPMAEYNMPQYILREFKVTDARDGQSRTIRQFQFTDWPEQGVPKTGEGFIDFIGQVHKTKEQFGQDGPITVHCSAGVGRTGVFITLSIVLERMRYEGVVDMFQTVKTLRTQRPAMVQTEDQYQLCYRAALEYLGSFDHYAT

[2] = biological target: T1, Receptor-type tyrosine-protein phosphatase mu (Homo sapiens, UniProt P28827); assay: Time-dependent inhibition of PTPmu (unknown origin) using DiFMUP as substrate at 10 uM incubated for 5 to 120 mins followed by substrate addition at pH 6.5 by standard phosphatase assay based fluorescence analysis; conditions: TDE = time-dependent effect
T1 sequence (P28827 whole entry): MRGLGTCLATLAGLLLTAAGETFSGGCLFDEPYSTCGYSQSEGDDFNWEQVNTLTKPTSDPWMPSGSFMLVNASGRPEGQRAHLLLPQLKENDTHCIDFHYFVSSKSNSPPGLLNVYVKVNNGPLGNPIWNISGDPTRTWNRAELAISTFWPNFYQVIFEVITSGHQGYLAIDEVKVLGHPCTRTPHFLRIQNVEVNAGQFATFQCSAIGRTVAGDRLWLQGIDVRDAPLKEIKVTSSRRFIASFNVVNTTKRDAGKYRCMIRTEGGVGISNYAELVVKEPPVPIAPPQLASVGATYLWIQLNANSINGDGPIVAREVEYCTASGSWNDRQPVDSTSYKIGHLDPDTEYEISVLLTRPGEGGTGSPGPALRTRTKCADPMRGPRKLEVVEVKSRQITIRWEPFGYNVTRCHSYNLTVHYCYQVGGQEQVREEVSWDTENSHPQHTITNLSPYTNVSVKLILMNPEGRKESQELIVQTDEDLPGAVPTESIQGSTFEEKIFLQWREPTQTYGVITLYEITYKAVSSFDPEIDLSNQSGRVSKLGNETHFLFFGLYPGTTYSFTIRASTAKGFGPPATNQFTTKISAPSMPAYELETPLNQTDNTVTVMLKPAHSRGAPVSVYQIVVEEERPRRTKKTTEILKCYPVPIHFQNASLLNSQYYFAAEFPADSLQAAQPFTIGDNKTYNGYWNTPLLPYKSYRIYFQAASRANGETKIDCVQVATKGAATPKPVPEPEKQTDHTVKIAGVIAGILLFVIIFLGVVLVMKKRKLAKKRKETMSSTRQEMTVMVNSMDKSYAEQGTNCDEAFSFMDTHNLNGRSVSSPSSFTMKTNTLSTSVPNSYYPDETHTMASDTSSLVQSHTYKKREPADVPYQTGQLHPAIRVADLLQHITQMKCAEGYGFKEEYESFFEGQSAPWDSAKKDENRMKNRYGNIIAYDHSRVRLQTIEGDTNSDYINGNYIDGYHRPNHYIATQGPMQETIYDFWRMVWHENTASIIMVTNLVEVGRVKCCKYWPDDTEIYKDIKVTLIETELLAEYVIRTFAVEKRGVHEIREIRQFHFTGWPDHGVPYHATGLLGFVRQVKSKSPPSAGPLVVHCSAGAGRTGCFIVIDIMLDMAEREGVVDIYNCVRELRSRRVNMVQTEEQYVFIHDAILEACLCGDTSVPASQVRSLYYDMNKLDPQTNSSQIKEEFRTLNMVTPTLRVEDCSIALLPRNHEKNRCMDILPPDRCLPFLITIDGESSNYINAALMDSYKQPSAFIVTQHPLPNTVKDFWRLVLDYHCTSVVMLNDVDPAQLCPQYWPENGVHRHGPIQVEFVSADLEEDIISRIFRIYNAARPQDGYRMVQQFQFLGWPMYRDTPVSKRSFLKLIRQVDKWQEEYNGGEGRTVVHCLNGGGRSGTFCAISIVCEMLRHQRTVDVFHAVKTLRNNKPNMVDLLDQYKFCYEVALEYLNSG

[3] = biological target: T2, Dual specificity protein phosphatase 3 (Homo sapiens, UniProt P51452); assay: Inhibition of VHR (unknown origin) using DiFMUP as substrate at 100 uM incubated for 30 mins followed by substrate addition at pH 6.5 by standard phosphatase assay based fluorescence analysis
Target sequence in this assay (P51452 whole entry, looked up): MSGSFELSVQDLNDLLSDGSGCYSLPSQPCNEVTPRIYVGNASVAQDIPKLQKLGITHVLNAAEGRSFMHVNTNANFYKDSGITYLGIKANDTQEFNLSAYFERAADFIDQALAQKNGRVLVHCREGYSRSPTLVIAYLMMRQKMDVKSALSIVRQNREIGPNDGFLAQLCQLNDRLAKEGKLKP

[4] = biological target: Receptor-type tyrosine-protein phosphatase F (Homo sapiens) (UniProt P10586); assay: Inhibition of LAR (unknown origin) using DiFMUP as substrate incubated for 30 mins followed by substrate addition at pH 6.5 by standard phosphatase assay based fluorescence analysis
[5] = biological target: T3, Receptor-type tyrosine-protein phosphatase C (Homo sapiens, UniProt P08575); assay: Inhibition of CD45 (unknown origin) using DiFMUP as substrate incubated for 30 mins followed by substrate addition at pH 6.5 by standard phosphatase assay based fluorescence analysis
T3 sequence (P08575 whole entry): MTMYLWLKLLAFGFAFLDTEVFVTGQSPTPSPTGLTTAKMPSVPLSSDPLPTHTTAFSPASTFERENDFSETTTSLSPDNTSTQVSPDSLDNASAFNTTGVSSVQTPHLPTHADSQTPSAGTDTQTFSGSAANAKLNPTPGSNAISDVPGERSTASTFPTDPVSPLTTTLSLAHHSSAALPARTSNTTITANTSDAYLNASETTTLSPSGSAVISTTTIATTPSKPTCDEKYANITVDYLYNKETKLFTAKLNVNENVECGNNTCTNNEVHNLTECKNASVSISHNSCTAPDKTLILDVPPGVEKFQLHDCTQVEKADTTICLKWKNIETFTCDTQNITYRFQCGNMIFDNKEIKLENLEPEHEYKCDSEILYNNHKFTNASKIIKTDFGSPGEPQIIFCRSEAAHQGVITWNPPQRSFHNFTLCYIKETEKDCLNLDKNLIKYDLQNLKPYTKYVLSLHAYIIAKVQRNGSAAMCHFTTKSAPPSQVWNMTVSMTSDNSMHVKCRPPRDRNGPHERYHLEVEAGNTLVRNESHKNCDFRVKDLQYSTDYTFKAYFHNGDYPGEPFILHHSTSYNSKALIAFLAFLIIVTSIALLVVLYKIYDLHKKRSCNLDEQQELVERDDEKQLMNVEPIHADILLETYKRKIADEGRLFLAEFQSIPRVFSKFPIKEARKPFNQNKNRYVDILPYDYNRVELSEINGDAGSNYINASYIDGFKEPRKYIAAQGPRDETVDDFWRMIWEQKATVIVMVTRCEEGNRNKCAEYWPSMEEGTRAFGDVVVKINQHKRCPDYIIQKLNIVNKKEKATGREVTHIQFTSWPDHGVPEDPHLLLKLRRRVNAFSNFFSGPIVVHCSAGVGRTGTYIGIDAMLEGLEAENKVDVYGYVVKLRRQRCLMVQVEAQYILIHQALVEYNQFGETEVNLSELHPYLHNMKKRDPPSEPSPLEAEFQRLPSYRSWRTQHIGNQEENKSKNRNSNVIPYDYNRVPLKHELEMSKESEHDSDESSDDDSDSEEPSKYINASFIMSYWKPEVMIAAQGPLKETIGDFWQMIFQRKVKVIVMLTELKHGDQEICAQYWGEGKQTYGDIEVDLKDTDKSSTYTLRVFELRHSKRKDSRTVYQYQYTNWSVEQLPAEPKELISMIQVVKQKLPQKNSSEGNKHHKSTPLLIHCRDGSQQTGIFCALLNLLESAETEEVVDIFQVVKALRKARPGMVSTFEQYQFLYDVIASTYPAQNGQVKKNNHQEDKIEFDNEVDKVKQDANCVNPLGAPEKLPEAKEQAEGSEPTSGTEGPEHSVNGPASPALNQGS

[6] = biological target: Receptor-type tyrosine-protein phosphatase F (Homo sapiens) (UniProt P10586); assay: Inhibition of LAR (unknown origin) using DiFMUP as substrate at 100 uM incubated for 30 mins followed by substrate addition at pH 6.5 by standard phosphatase assay based fluorescence analysis
[7] = biological target: T4, Tyrosine-protein phosphatase non-receptor type 11 (Homo sapiens, UniProt Q06124); assay: Inhibition of SHP2 (unknown origin) using DiFMUP as substrate incubated for 30 mins followed by substrate addition at pH 6.5 by standard phosphatase assay based fluorescence analysis
T4 sequence (Q06124 whole entry): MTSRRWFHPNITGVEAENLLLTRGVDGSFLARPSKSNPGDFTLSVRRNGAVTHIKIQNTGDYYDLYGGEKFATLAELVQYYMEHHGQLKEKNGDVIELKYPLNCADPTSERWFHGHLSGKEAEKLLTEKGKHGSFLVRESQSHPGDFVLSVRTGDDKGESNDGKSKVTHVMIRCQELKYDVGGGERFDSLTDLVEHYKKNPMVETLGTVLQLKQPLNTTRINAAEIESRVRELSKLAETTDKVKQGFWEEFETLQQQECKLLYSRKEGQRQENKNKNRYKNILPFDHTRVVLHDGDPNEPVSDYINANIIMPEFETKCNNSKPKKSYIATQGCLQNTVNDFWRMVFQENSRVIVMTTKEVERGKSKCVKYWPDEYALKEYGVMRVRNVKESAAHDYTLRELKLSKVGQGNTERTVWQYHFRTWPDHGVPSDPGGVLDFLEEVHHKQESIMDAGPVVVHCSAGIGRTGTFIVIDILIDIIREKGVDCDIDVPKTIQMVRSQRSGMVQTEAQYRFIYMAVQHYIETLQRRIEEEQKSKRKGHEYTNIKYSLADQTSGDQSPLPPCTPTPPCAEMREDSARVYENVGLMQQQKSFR

[8] = biological target: T5, Receptor-type tyrosine-protein phosphatase epsilon (Homo sapiens, UniProt P23469); assay: Inhibition of PTPep (unknown origin) using DiFMUP as substrate incubated for 30 mins followed by substrate addition at pH 6.5 by standard phosphatase assay based fluorescence analysis
T5 sequence (P23469 whole entry): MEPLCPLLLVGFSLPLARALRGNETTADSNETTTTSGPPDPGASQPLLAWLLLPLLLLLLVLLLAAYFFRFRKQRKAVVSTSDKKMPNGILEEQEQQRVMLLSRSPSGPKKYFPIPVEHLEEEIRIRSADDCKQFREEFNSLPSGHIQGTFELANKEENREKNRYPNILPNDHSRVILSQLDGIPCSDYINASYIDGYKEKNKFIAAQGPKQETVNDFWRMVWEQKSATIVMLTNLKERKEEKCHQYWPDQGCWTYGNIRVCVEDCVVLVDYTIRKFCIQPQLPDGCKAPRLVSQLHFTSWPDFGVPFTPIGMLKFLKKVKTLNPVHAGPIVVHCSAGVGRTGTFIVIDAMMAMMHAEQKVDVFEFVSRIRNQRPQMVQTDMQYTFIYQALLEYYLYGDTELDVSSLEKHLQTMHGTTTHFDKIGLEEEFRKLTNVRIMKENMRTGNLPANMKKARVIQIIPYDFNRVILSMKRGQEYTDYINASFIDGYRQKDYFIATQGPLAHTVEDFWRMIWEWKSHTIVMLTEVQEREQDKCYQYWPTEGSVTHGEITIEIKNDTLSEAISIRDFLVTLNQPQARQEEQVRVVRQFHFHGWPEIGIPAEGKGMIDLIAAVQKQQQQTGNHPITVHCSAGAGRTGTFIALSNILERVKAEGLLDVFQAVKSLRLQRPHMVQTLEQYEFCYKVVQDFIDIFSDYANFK

[9] = biological target: T6, Tyrosine-protein phosphatase non-receptor type 2 (Homo sapiens, UniProt P17706); assay: Inhibition of TCPTP (unknown origin) using DiFMUP as substrate incubated for 30 mins followed by substrate addition at pH 6.5 by standard phosphatase assay based fluorescence analysis
T6 sequence (P17706 whole entry): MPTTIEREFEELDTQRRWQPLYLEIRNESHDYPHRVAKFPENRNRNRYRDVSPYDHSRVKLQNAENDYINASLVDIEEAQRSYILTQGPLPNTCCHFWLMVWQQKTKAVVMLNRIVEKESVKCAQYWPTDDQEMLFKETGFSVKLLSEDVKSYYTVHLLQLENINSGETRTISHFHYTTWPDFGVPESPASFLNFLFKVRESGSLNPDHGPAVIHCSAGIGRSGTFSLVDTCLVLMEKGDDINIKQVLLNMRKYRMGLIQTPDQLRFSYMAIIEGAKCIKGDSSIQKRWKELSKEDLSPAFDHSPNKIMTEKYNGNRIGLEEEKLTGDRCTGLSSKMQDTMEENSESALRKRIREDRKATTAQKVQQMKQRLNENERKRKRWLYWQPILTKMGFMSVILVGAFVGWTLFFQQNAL

[10] = biological target: T7, Tyrosine-protein phosphatase non-receptor type 7 (Homo sapiens) (UniProt P35236); assay: Inhibition of HePTP (unknown origin) using DiFMUP as substrate at 100 uM incubated for 30 mins followed by substrate addition at pH 6.5 by standard phosphatase assay based fluorescence analysis
T7 sequence (whole entry): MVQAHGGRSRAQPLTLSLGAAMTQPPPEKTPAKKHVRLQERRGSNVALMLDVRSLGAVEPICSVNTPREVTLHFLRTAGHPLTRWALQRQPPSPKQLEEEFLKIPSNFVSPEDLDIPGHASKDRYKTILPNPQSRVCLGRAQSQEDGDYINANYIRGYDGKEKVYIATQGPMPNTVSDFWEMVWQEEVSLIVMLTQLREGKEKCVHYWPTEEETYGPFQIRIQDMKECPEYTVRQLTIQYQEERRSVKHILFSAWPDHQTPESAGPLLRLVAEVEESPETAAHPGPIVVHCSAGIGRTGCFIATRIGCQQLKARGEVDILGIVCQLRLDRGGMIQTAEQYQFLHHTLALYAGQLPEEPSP

[11] = biological target: T8, Receptor-type tyrosine-protein phosphatase C (Homo sapiens) (UniProt P08575); assay: Inhibition of CD45 (unknown origin) using DiFMUP as substrate at 100 uM incubated for 30 mins followed by substrate addition at pH 6.5 by standard phosphatase assay based fluorescence analysis
T8 sequence (whole entry): T3 sequence (P08575 whole entry)

[12] = biological target: T9, Tyrosine-protein phosphatase non-receptor type 7 (Homo sapiens, UniProt P35236); assay: Inhibition of HePTP (unknown origin) using DiFMUP as substrate incubated for 30 mins followed by substrate addition at pH 6.5 by standard phosphatase assay based fluorescence analysis
T9 sequence (P35236 whole entry): T7 sequence (whole entry)

[13] = biological target: T10, Tyrosine-protein phosphatase non-receptor type 2 (Homo sapiens) (UniProt P17706); assay: Inhibition of TCPTP (unknown origin) using DiFMUP as substrate at 100 uM incubated for 30 mins followed by substrate addition at pH 6.5 by standard phosphatase assay based fluorescence analysis
T10 sequence (whole entry): T6 sequence (P17706 whole entry)

[14] = biological target: T11, Tyrosine-protein phosphatase non-receptor type 11 (Homo sapiens) (UniProt Q06124); assay: Inhibition of SHP2 (unknown origin) using DiFMUP as substrate at 100 uM incubated for 30 mins followed by substrate addition at pH 6.5 by standard phosphatase assay based fluorescence analysis
T11 sequence (whole entry): T4 sequence (Q06124 whole entry)

[15] = biological target: Low molecular weight phosphotyrosine protein phosphatase (Homo sapiens) (UniProt P24666); assay: Inhibition of LMWPTP (unknown origin) using DiFMUP as substrate at 100 uM incubated for 30 mins followed by substrate addition at pH 6.5 by standard phosphatase assay based fluorescence analysis
Sequence of Low molecular weight phosphotyrosine protein phosphatase (Homo sapiens) (P24666 whole entry, looked up): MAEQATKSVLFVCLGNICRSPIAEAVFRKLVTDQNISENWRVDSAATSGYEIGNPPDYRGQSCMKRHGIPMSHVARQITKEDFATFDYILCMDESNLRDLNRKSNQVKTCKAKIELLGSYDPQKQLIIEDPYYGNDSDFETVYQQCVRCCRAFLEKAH

[16] = biological target: T8, Receptor-type tyrosine-protein phosphatase C (Homo sapiens); assay: Time dependent inhibition of CD45 (unknown origin) using DiFMUP as substrate at 10 uM incubated for 5 to 120 mins followed by substrate addition at pH 6.5 by standard phosphatase assay based fluorescence analysis; conditions: TDE = time-dependent effect
[17] = biological target: Receptor-type tyrosine-protein phosphatase F (Homo sapiens) (UniProt P10586); assay: Time-dependent inhibition of LAR (unknown origin) using DiFMUP as substrate at 1 uM incubated for 15 to 120 mins followed by substrate addition at pH 6.5 by standard phosphatase assay based fluorescence analysis; conditions: TDE = time-dependent effect
[18] = biological target: T2, Dual specificity protein phosphatase 3; assay: Inhibition of VHR (unknown origin) using DiFMUP as substrate incubated for 30 mins followed by substrate addition at pH 6.5 by standard phosphatase assay based fluorescence analysis
Target sequence in this assay (P51452 whole entry): as the sequence (P51452 whole entry, looked up) above

[19] = biological target: T5, Receptor-type tyrosine-protein phosphatase epsilon; assay: Inhibition of PTPep (unknown origin) using DiFMUP as substrate at 100 uM incubated for 30 mins followed by substrate addition at pH 6.5 by standard phosphatase assay based fluorescence analysis
[20] = biological target: T1, Receptor-type tyrosine-protein phosphatase mu; assay: Inhibition of PTPmu (unknown origin) using DiFMUP as substrate at 100 uM incubated for 30 mins followed by substrate addition at pH 6.5 by standard phosphatase assay based fluorescence analysis
[21] = biological target: T1, Receptor-type tyrosine-protein phosphatase mu; assay: Inhibition of PTPmu (unknown origin) using DiFMUP as substrate incubated for 30 mins followed by substrate addition at pH 6.5 by standard phosphatase assay based fluorescence analysis
[22] = biological target: Receptor-type tyrosine-protein phosphatase F (Homo sapiens) (UniProt P10586); assay: Time-dependent inhibition of LAR (unknown origin) using DiFMUP as substrate at 50 uM incubated for 15 to 120 mins followed by substrate addition at pH 6.5 by standard phosphatase assay based fluorescence analysis; conditions: TDE = time-dependent effect

inhibition [3]	pIC50 [5]	inhibition [6]	pIC50 [7]	pIC50 [8]	pIC50 [9]	inhibition [10]	inhibition [11]	pIC50 [12]	inhibition [13]	inhibition [14]	inhibition [15]	pIC50 [18]	inhibition [19]	inhibition [20]	pIC50 [21]	Compound	further results
inactive	5.00	Active	4.54	< 4.00	< 4.00	inactive	Active	< 4.00	inactive	Active	inactive	< 4.00	inactive	Active	4.80	CC1(C)Cc2c(O)c(C=O)c3c(c2C1)C(=O)OC(O)C3 (configuration not stated) [ILLUDALIC ACID]	T1/2 [1]: 30 s; inhibition [2]: Tde; inhibition [4]: Dose-dependent effect; inhibition [16]: Tde; inhibition [17]: Tde
inactive	–	inactive	–	–	–	inactive	inactive	–	inactive	inactive	inactive	–	inactive	inactive	–	COc1ccc2c(c1C=O)CC(O)OC2=O (configuration not stated)	–
inactive	< 4.00	Active	< 4.00	< 4.00	< 4.00	inactive	inactive	< 4.00	inactive	inactive	inactive	< 4.00	inactive	inactive	< 4.00	COc1c(C=O)c2c(c3c1CC(C)(C)C3)C(=O)OC(O)C2 (configuration not stated)	inhibition [22]: Tde
